According to ChEMBL document CHEMBL1139353, “Discovery of a new class of potential multifunctional atypical antipsychotic agents targeting dopamine D3 and serotonin 5-HT1A and 5-HT2A receptors: design, synthesis, and effects on behavior” (J Med Chem, 2009):
Active and inactive are the calls of the source. No cut-off for these calls is given here.

Assays:
Mus musculus [1] = test: Sedative activity in NMRI mouse assessed as reduction in spontaneous locomotor activity at 10 mg/kg administered 30 mins prior to testing relative to control; format: organism-based; parameters: dose 10 mg/kg; conditions: in vivo, 0.5 h
Mus musculus [2] = test: Antipsychotic activity in NMRI mouse assessed as reduction in methamphetamine-induced locomotor activity at 3 mg/kg administered 30 mins prior to testing measured for 60 mins relative to control; format: functional, organism-based; parameters: dose 3 mg/kg
Mus musculus [3] = test: Antipsychotic activity in NMRI mouse assessed as reduction in methamphetamine-induced locomotor activity at 10 mg/kg administered 30 mins prior to testing measured for 60 mins relative to control; format: functional, organism-based; parameters: dose 10 mg/kg
Mus musculus [4] = test: Antipsychotic activity in NMRI mouse assessed as reduction in phencyclidine-induced locomotor activity at 3 mg/kg administered 30 mins prior to testing measured for 60 mins; format: functional, organism-based; parameters: dose 3 mg/kg
Rattus norvegicus [5] = test: Induction of c-Fos protein expression in rat nucleus accumbens shell at 3 mg/kg, ip after 1 hr by light microscopy; format: functional, organism-based; parameters: dose 3 mg/kg
Rattus norvegicus [6] = test: Induction of c-Fos protein expression in rat nucleus accumbens core subregion at 3 mg/kg, ip after 1 hr by light microscopy; format: functional, organism-based; parameters: dose 3 mg/kg
Rattus norvegicus [7] = test: Induction of c-Fos protein expression in rat nucleus accumbens core subregion at 10 mg/kg, ip after 1 hr by light microscopy; format: functional, organism-based; parameters: dose 10 mg/kg
Rattus norvegicus [8] = test: Induction of c-Fos protein expression in rat dorsolateral striatum at 30 mg/kg, ip after 1 hr by light microscopy; format: functional, organism-based; parameters: dose 30 mg/kg
[9] = target: T1, Adrenergic receptor alpha-2 (Rattus norvegicus, UniProt P22086+P19328+P22909); test: Displacement of [3H]clonidine from adrenergic alpha2 receptor in rat cerebral cortex by filtration technique; format: tissue-based
T1 sequence (P22086 whole entry): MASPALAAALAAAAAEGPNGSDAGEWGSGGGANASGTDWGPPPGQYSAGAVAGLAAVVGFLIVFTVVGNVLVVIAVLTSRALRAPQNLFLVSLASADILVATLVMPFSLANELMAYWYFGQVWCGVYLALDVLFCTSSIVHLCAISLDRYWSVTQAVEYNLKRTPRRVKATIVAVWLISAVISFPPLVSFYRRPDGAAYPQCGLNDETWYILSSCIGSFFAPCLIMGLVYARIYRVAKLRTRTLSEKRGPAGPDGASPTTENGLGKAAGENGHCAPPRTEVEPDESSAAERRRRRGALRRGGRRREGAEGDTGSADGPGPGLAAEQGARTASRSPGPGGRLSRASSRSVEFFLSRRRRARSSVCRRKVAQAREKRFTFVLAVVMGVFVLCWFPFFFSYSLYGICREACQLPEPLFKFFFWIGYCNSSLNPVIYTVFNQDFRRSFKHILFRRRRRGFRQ
T1 sequence (P19328 whole entry): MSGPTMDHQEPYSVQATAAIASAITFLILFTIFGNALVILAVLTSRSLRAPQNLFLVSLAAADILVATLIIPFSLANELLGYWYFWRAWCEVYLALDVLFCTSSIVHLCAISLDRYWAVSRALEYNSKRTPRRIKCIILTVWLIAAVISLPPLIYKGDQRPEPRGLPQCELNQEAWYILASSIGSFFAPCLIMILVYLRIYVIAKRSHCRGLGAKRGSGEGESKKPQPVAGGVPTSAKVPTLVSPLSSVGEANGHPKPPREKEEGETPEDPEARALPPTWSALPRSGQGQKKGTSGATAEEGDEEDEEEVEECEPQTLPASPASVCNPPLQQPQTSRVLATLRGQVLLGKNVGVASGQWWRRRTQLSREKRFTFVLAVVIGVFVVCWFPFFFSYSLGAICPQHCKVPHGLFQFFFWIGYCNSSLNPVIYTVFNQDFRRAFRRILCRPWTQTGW
T1 sequence (P22909 whole entry): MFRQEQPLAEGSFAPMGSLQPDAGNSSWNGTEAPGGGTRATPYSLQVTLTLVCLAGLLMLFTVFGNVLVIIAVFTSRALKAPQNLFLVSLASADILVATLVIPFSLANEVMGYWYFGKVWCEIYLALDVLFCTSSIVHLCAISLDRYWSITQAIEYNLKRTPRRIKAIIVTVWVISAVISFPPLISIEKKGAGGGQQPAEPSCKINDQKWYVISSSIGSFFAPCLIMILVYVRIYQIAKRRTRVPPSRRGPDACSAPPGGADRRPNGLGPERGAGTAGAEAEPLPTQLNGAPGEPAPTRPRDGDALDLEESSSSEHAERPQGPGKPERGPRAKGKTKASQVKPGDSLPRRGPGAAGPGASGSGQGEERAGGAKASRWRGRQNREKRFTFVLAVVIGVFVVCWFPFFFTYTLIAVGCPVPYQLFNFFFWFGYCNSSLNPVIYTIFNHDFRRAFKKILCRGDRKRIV

[10] = Intrinsic activity at 5HT1A receptor in Duncan Hartley guinea pig ileum; format: tissue-based; conditions: Cavia porcellus
[11] = target: 5-hydroxytryptamine receptor 2A (Rattus norvegicus, UniProt P14842); test: Intrinsic activity at 5HT2A receptor in Wistar rat aorta; format: tissue-based
Chain of 5-hydroxytryptamine receptor 2A (P14842 whole entry): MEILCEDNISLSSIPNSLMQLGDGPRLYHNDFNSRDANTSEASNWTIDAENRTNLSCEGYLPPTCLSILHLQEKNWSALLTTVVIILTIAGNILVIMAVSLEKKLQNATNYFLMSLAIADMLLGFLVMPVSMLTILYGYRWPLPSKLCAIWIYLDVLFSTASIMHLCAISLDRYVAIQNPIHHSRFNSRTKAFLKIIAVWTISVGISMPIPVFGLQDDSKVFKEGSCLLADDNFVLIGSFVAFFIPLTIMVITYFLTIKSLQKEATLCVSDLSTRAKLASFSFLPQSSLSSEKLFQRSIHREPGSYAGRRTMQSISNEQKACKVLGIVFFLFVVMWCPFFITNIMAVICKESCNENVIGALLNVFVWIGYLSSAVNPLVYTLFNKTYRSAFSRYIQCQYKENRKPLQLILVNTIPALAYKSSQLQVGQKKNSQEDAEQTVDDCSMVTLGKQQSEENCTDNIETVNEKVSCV

D(1A) dopamine receptor = D(1A) dopamine receptor (Rattus norvegicus, UniProt P18901)
Chain of D(1A) dopamine receptor (P18901 whole entry): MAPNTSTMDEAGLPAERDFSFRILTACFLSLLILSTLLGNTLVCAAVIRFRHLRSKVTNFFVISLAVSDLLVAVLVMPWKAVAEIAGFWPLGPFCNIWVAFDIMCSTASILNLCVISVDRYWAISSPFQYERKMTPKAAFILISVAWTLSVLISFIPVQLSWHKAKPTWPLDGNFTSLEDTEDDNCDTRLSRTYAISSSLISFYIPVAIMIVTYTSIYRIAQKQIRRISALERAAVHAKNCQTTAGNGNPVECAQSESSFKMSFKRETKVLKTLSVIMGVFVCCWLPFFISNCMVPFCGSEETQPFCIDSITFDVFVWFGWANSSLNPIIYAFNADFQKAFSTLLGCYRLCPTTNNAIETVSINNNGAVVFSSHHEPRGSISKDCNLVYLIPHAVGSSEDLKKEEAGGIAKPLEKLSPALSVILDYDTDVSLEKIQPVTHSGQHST
Description: Displacement of [3H]SCH23390 from dopamine D1 receptor in CRL:CD(SD)BR-COBS rat striatum by scintillation spectrometry

[12] = target: Voltage-gated inwardly rectifying potassium channel KCNH2 (Homo sapiens, UniProt Q12809)
Chain of Voltage-gated inwardly rectifying potassium channel KCNH2 (Q12809 whole entry): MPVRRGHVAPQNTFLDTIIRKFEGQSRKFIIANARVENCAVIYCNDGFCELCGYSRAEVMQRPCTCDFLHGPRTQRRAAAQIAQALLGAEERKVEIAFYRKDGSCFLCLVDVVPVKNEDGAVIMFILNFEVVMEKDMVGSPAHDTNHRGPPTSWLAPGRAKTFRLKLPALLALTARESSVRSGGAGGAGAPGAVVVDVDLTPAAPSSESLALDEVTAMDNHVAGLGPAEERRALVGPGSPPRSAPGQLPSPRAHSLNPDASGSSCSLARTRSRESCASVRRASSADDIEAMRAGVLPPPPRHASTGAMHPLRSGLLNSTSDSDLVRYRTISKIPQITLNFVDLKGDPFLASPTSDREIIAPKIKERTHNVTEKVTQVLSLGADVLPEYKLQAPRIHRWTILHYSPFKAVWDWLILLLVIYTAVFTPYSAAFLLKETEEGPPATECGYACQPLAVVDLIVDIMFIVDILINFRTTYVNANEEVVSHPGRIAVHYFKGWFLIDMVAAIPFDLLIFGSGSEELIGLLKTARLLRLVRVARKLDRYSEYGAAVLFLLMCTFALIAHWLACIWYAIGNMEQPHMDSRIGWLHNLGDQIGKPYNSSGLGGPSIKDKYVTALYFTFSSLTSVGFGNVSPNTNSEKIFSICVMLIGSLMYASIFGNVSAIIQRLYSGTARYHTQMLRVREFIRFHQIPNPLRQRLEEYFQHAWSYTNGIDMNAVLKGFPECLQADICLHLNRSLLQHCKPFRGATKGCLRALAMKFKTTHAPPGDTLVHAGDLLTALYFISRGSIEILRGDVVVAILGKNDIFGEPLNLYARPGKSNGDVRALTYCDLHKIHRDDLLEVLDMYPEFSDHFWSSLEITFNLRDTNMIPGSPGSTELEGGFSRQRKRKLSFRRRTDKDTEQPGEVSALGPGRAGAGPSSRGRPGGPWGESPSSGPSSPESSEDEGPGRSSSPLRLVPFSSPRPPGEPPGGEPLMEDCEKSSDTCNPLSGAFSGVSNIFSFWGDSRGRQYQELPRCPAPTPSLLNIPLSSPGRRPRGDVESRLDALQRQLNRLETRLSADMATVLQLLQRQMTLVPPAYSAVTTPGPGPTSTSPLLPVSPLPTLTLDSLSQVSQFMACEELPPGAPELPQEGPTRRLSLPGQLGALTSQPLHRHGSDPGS
Description: Binding affinity to human ERG expressed in HEK293 cells by whole cell patch clamp method

Mus musculus [13] = species: Mus musculus; conditions: in vivo, sc, 1 h
Description: Toxicity in sc dosed NMRI mouse assessed as cataleptogenic potential administered 30 mins prior to testing measured every 15 mins for 60 mins by horizontal bar test

[14] = target: T2, 5-hydroxytryptamine receptor 1A (Rattus norvegicus, UniProt P19327); test: biochemical
T2 sequence (P19327 whole entry): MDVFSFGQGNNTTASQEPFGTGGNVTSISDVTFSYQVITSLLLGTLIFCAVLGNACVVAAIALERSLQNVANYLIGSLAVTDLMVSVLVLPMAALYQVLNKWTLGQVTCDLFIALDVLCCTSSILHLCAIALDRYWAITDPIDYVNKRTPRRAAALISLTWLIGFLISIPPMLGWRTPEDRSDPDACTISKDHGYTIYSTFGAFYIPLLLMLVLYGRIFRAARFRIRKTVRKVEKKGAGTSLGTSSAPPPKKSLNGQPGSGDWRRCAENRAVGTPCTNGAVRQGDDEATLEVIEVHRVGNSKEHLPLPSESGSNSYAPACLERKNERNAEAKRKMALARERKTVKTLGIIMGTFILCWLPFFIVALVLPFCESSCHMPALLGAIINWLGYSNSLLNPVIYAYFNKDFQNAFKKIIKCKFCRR
Description: Displacement of [3H]8OH-DPAT from 5HT1A receptor in CRL:CD(SD)BR-COBS rat hippocampus by scintillation spectrometry

Mus musculus [15] = species: Mus musculus; test: animal or person; conditions: NMRI
Description: (§1) Antipsychotic activity in NMRI mouse assessed as reduction in methamphetamine-induced locomotor activity administered 30 mins prior to testing measured for 60 mins

Mus musculus [16] = species: Mus musculus; test: animal or person; conditions: NMRI; remark: listed apart in the source
Description: Antipsychotic activity in NMRI mouse assessed as reduction in phencyclidine-induced locomotor activity administered 30 mins prior to testing measured for 60 mins

Mus musculus [17] = conditions: NMRI
Description: as §1

Ki [9]: 43 nM | IC50 [10]: 180 nM | IC50 [11]: 230 nM | Ki (D(1A) dopamine receptor): 3290 nM | ED50 (Mus musculus [13]): > 30 mg/kg | Ki [14]: 11.9 nM
Compound: Cc1cccc(N2CCN(CCCCNC(=O)c3cc4ccccc4o3)CC2)c1
Activity (Mus musculus [1]): Toxic | Activity (Mus musculus [2]): Active | Activity (Mus musculus [3]): Active | Activity (Mus musculus [4]): Active | Activity (Rattus norvegicus [5]): Active | Activity (Rattus norvegicus [6]): inactive | Activity (Rattus norvegicus [7]): Active | Activity (Rattus norvegicus [8]): Active | Ki [12]: 930 nM | ED50 (Mus musculus [15]): 2.1 mg/kg | ED50 (Mus musculus [16]): 2.6 mg/kg | Activity (Mus musculus [17]): Dose-dependent effect
